The values that follow come from patent publication US8580959B2, “Azolotriazinone melanin concentrating hormone receptor-1 antagonists” (Bristol-Myers Squibb Company, priority 2008, dated 2013).

In one assay the target is MCHR1 Rat (Rattus norvegicus, UniProt P97639). The assay is described as follows: MCHR1 rat binding (radioligand binding assay).
Assay [1] deals with T1, mutated (E4Q, A5T) hMCHR1 receptor (Homo sapiens, UniProt Q99705, A5T/E4Q).
T1 construct: expressed in transfected cells; host or cells: HEK-293 (stably transfected), membranes
T1 sequence (Q99705 whole entry E4Q/A5T): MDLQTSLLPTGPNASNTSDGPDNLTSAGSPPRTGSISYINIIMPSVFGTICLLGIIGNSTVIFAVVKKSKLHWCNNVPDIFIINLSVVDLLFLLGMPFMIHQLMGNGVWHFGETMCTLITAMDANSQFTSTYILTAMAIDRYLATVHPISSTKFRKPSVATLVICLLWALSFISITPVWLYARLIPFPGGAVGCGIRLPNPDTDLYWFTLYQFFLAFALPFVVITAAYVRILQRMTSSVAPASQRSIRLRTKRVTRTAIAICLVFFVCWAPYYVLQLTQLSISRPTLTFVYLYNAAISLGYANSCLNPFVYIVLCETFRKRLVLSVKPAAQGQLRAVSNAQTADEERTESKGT
As to the kind of experiment: Radioligand binding assay for assessment of MCHR1 activity (human). The following applies: membranes of HEK-293 cells, [Phe13,[125I]Tyr19]-MCH competition. As for the experimental part:
Radioligand Binding Assay for Assessment of MCHR1 Activity
Membranes from stably transfected HEK-293 cells expressing a mutated (E4Q, A5T) hMCHR1 receptor were prepared by dounce homogenization and differential centrifugation. Binding experiments were carried out with 0.5-1.0 ug of membrane protein incubated in a total of 0.2 ml in 25 mM HEPES (pH 7.4) with 10 mM MgCl2, 2 mM EGTA, and 0.1% BSA (Binding Buffer) for 90 min. […] Filters were dried, 0.05 ml microscint 20 was added to each well and radioactivity was subsequently quantified by scintillation counting on a TOPCOUNT® microplate scintillation counter (Packard). Inhibitory constants were determined by nonlinear least squares analysis using a four parameter logistic equation.

The subject of the next assay is Male SPRAGUE DAWLEY rats. The assay is described as follows: Assessment of in vivo MCHR activity (body weight, rats with choice of chow and high fat high sugar diet). Details: species or system rat. The following applies: dose 30 mg/kg p.o. daily day 0 through day 4, rats; parent dosed as its prodrug example (22, 63, 50). As for the experimental part: Assessment of In Vivo MCHR Activity
Male SPRAGUE DAWLEY® (CD, Charles River Breeding Laboratory) rats weighing approximately 240 grams were place in individual plastic cages with ALPHADRI® bedding. The room was maintained at 72° F. and 50% humidity, and a 12/12 light dark cycle with lights out at 1600 hours. The rats were conditioned for 5 days prior to the start of the study to having a choice of foods. A normal chow (HARLAN TEKLAD®, 2018) that contains 18% protein, 5% fat and 73% carbohydrate and a high fat high sugar diet (Research Diets (D2327)) that contains 20% protein, 40% fat and 40% carbohydrate where the carbohydrate is entirely sucrose and the fat is soybean and coconut oil. […] Body weight and consumption of both kinds of food as well as water intake were measured daily. Water was available ad lib throughout the study. Food consumption is presented as daily caloric consumption which is the sum of grams of chow multiplied by the Kcal per gram (3.5) plus grams of high fat high sugar multiplied by Kcal per gram (4.59).
Baseline body weight was measured prior to drug treatment on day 0 of the study. Baseline food consumption was the average of the 3 days prior to the first drug treatment. Drug was administered daily p.o. at 2.0 ml/kg at 1500 hours beginning on day 0 and continuing daily through day 4 as a suspension in 0.5% methyl cellulose, 0.1% Tween 80 in water at 3.0, 10 and 30 mg/kg p.o. All data were evaluated using ANOVA and Fishers PLSD statistics.

Counter-ions that a name gives are not always drawn.

MCHR1 Rat, sequence (P97639 whole entry): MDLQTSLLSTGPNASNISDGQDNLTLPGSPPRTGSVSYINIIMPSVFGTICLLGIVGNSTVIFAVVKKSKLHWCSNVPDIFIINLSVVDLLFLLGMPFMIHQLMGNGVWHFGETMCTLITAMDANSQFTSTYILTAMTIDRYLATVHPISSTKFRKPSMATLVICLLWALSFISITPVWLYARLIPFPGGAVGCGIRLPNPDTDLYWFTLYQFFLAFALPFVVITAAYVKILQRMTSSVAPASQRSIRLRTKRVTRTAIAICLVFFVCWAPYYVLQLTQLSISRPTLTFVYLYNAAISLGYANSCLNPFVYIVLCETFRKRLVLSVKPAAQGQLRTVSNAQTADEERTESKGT

Take `COc1cc(-n2cnn3cc(-c4ccc(Cl)cc4)cc3c2=O)ccc1OCC(C)(C)O` [Example 1, 6-(4-Chlorophenyl)-3-(4-(2-hydroxy-2-methylpropoxy)-3-methoxyphenyl)pyrrolo[1,2-f][1,2,4]triazin-4(3H)-one]: the Ki (commonly the equilibrium dissociation constant of an inhibitor or competing ligand from its target) worked out at 2.76 nM on MCHR1 Rat and 4.42 nM in assay [1].
The like results for `COc1ccc(-n2cnn3cc(-c4ccc(Cl)cc4)cc3c2=O)cc1OC` [Example 2, 6-(4-Chlorophenyl)-3-(3,4-dimethoxyphenyl)pyrrolo[1,2-f][1,2,4]triazin-4(3H)-one] were, in that order, 8.29 nM and 21.4 nM.
Consider `O=c1c2cc(-c3ccc(Cl)cc3)cn2ncn1-c1ccc(N2CCC(O)CC2)nc1` [Example 18, 6-(4-Chlorophenyl)-3-(6-(4-hydroxypiperidin-1-yl)pyridin-3-yl)pyrrolo[1,2-f][1,2,4]triazin-4(3H)-one], for which the Ki in assay [1] stood at 11.5 nM.
On to “6-(4-Chlorophenyl)-3-(4-(2-hydroxy-2-methylpropoxy)-3-methoxyphenyl)pyrrolo[1,2-f][1,2,4]triazin-4(3H)-one [Example 1]”, for which the “% Weight Reduction versus Vehicle” value in the assay on Male SPRAGUE DAWLEY rats stood at 6.9%.
The same measure, in the same setting: in the case of `COc1cc(-n2cnn3cc(-c4ccc(Cl)cn4)cc3c2=O)ccc1OCC(C)(C)O` [Example 33, 6-(5-Chloropyridin-2-yl)-3-[4-(2-hydroxy-2-methyl-propoxy)-3-methoxy-phenyl]-3H-pyrrolo[2,1-f][1,2,4]triazin-4-one] it was 11.2%.
Turning to `COc1cc(-n2cnn3cc(-c4ccc(Cl)cc4)cc3c2=O)ccc1OCCN1CCCC1` [Example 4, 6-(4-Chlorophenyl)-3-(3-methoxy-4-(2-(pyrrolidin-1-yl)ethoxy)phenyl)pyrrolo[1,2-f][1,2,4]triazin-4(3H)-one], the Ki at MCHR1 Rat came to 0.7 nM; in assay [1], 0.52 nM.
For `COc1cc(-n2cnn3cc(-c4ccc(Cl)cc4)cc3c2=O)ccc1N1C[C@H](OC(=O)[C@@H](N)C(C)C)[C@H](OC(=O)[C@@H](N)C(C)C)C1` [Example 56, (2S,2′S)-((3S,4R)-1-(4-(6-(4-Chlorophenyl)-4-oxopyrrolo[1,2-f][1,2,4]triazin-3(4H)-yl)-2-methoxyphenyl)pyrrolidine-3,4-diyl)bis(2-amino-3-methylbutanoate), 2TFA], the Ki in assay [1] was found to be 9.4 nM. This lies in the single-digit nanomolar range.
In the case of `COc1cc(-n2cnn3cc(-c4ccc(Cl)cc4)cc3c2=O)ccc1OCC(O)C1CC1` (centres unmarked) [Example 3, 6-(4-Chlorophenyl)-3-(4-(2-cyclopropyl-2-hydroxyethoxy)-3-methoxyphenyl)pyrrolo[1,2-f][1,2,4]triazin-4(3H)-one], the Ki is 2.79 nM on MCHR1 Rat and 4.49 nM in assay [1].
`O=c1c2cc(-c3ccc(Cl)cn3)cn2ncn1-c1ccc(N2CC[C@@H](O)C2)nc1` [Example 31, 6-(5-Chloropyridin-2-yl)-3-[6-(3-hydroxy-pyrrolidin-1-yl)-pyridin-3-yl]-3H-pyrrolo[2,1-f][1,2,4]triazin-4-one] showed a Ki in assay [1] of 124 nM.
On the same count and under the same terms, in the case of `COc1cc(-n2cnn3cc(-c4ncc(Cl)cn4)cc3c2=O)ccc1OCC1(O)CC(F)(F)C1` [Example 57, 6-(5-Chloropyrimidin-2-yl)-3-(4-((3,3-difluoro-1-hydroxycyclobutyl)methoxy)-3-methoxyphenyl)pyrrolo[1,2-f][1,2,4]triazin-4(3H)-one] it was 9 nM.
For `COc1cc(-n2cnn3cc(-c4ccc(Cl)cn4)cc3c2=O)ccc1OCC1(O)CC(F)(F)C1` [Example 46, 6-(5-Chloropyridin-2-yl)-3-(4-((3,3-difluoro-1-hydroxycyclobutyl)methoxy)-3-methoxyphenyl)pyrrolo[1,2-f][1,2,4]triazin-4(3H)-one-4(3H)-one], in the assay on Male SPRAGUE DAWLEY rats, the “% Weight Reduction versus Vehicle” value was 2.6%.
For the molecule `COc1ccc(-n2cnn3cc(-c4ccc(Cl)cc4)nc3c2=O)cc1OC` [Example 38, 6-(4-Chlorophenyl)-3-(3,4-dimethoxy-phenyl)-3H-imidazo[2,1-f][1,2,4]triazin-4-one], in assay [1], the Ki is 76.1 nM.
Same read-out and setting: in the case of `CCS(=O)(=O)C[C@H](COc1ccc(-n2cnn3cc(-c4ncc(Cl)cn4)cc3c2=O)cc1OC)OC(=O)CN` [Example 61, (S)-1-(4-(6-(5-Chloropyrimidin-2-yl)-4-oxopyrrolo[1,2-f][1,2,4]triazin-3(4H)-yl)-2-methoxyphenoxy)-3-(ethylsulfonyl)propan-2-yl 2-aminoacetate, TFA] it was 126 nM.
Same read-out and setting: for `COc1cc(-n2cnn3cc(-c4ccc(Cl)cc4)cc3c2=O)ccc1OCC(C)N1CCCC1` (centres unmarked) [Example 13, 6-(4-Chlorophenyl)-3-[3-methoxy-4-(2-pyrrolidin-1-yl-propoxy)-phenyl]-3H-pyrrolo[2,1-f] [1,2,4]triazin-4-one] the value was 0.17 nM.
Take `COc1cc(-n2cnn3nc(-c4ccc(Cl)cc4)cc3c2=O)ccc1OCCN1CCC(O)C1` (centres unmarked) [Example 6, 6-(4-Chlorophenyl)-3-(4-(2-(3-hydroxypyrrolidin-1-yl)ethoxy)-3-methoxyphenyl)pyrazolo[1,5-f][1,2,4]triazin-4(3H)-one]: the Ki on MCHR1 Rat was 0.8 nM; in assay [1], 2.2 nM.
